# Assay results from ChEMBL document CHEMBL1201862, “PubChem BioAssay data set” (2004).
# The source made the active and inactive calls.
# Assays:
# [1] = target: T1, Kappa-type opioid receptor (Homo sapiens, UniProt P41145); assay: KOR agonist analogs, arrestin-GFP redistribution, SAR follow-up, imaging, image-based, set 3 (AID 488833); assay type: functional
# [2] = target: T1, Kappa-type opioid receptor; assay: SAR analysis of small molecule agonists of the kappa opioid receptor via a luminescent beta-arrestin assay - Set 3. [Related pubchem assays (depositor defined):AID1777, AID1785, AID1786, AID1966, AID2133, AID2136, AID2284, AID2500]; assay type: functional
# [3] = target: T2, Mu-type opioid receptor (Homo sapiens, UniProt P35372); assay: SAR Analysis of Agonists of the MOR Receptor using an Image-Based Assay - Set 3. [Related pubchem assays (depositor defined):AID1777, AID1785, AID1786, AID1966, AID2133, AID2136, AID2284, AID2285, AID2352]; assay type: functional
# [4] = target: T3, Delta-type opioid receptor (Homo sapiens, UniProt P41143); assay: SAR Analysis of Agonists of the DOR Receptor using an Image-Based Assay - Set 3. [Related pubchem assays (depositor defined):AID1777, AID1786]; assay type: functional
# [5] = target: NACHT, LRR and PYD domains-containing protein 3 (Homo sapiens, UniProt Q96P20); assay: NALP3 inhibitors in yeast, dose response, luminescent (AID 488799); assay type: functional
# [6] = target: T4, Intestinal-type alkaline phosphatase (Homo sapiens, UniProt P09923); assay: human intestinal alkaline phosphatase activators, dose response, biochemical, luminescence, uHTS hits (AID 463120); assay type: functional
# [7] = target: T5, Intestinal-type alkaline phosphatase (Mus musculus, UniProt P24822); assay: PubChem AID 488874; assay type: functional
# [8] = target: T6, Alkaline phosphatase, tissue-nonspecific isozyme (Homo sapiens, UniProt P05186); assay: TNAP enzyme activators, dose response, selectivity assay for human IAP activator project, biochemical, TNAP isozyme, human IAP uHTS hits (AID 488886); assay type: functional;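 also: potency of compounds raising TNAP activity as a selectivity check on IAP activators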
# T6 sequence (P05186 whole entry): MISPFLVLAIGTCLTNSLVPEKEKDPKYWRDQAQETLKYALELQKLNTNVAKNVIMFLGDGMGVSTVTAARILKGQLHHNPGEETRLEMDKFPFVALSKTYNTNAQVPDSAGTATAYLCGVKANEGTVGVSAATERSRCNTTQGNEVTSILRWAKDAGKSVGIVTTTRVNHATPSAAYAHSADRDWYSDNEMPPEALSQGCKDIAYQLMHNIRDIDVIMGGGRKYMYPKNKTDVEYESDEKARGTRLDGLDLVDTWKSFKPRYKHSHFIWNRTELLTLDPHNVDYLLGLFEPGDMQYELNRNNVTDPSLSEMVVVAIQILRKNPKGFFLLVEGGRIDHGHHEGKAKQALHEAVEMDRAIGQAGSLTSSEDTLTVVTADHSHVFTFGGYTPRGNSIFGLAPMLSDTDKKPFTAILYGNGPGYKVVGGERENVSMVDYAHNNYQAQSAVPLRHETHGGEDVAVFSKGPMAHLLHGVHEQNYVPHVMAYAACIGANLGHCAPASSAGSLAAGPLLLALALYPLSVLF
# [9] = target: T4, Intestinal-type alkaline phosphatase; assay: human IAP activators, dose response, biochemical, luminescent, uHTS hits, set 2 (AID 488817); assay type: functional;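 also: potency of activators that raise enzyme activity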
# [10] = target: Hexokinase (Trypanosoma brucei, UniProt Q38C41); assay: Confirmation assay for inhibitors of Trypanosoma brucei hexokinase 1-Analogue-first series. [Related pubchem assays (depositor defined):AID1430, AID1632, AID2516, AID2560, AID2579, AID2600, AID449725, AID492951]; assay type: functional
# [11] = target: Potassium voltage-gated channel subfamily KQT member 2 (Rattus norvegicus, UniProt O88943); assay: retigabine-insensitive KCNQ2 potentiators, concentration-response, dose response, cell-based, retigabine-insensitive compounds (AID 2654); assay type: functional
# [12] = target: Bcl-2-like protein 10 (Homo sapiens, UniProt Q9HD36); assay: displacers of TR3 peptide from Bcl-B, primary screen, selectivity assay for Bfl-1 inhibitor project, biochemical, fluorescence polarization, FITC-TR3 peptide (AID 748);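 also: fluorescence polarization from a fluorescein-labelled TR3 peptide binding purified Bcl-B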
# [13] = target: T5, Intestinal-type alkaline phosphatase; assay: PubChem AID 488875; assay type: functional
# [14] = target: T3, Delta-type opioid receptor; assay: SAR Analysis of Antagonists of the DOR Receptor using an Image-Based Assay - Set 3. [Related pubchem assays (depositor defined):AID1777, AID1785]; assay type: functional
# [15] = target: T2, Mu-type opioid receptor; assay: SAR Analysis of Antagonists of the MOR Receptor using an Image-Based Assay - Set 3. [Related pubchem assays (depositor defined):AID1777, AID1785, AID1786, AID1966, AID2133, AID2136, AID2284, AID2285, AID2420]; assay type: functional
# [16] = target: T1, Kappa-type opioid receptor; assay: SAR analysis of small molecule antagonists of the kappa opioid receptor via a luminescent beta-arrestin assay - Set 3. [Related pubchem assays (depositor defined):AID1777, AID1778, AID1785, AID1786, AID1966, AID2133, AID2136, AID2285, AID2495]; assay type: functional
# [17] = target: T1, Kappa-type opioid receptor; assay: SAR analysis of Antagonists of the Kappa Opioid Receptor (KOR) using an Image-Based Assay - Set 3. [Related pubchem assays (depositor defined):AID1777, AID1785]; assay type: functional
# [18] = target: Signal transducer and activator of transcription 3 (Homo sapiens, UniProt P40763); assay: STAT3 activators, late-stage profile, late-stage follow-up, cell-based, STAT1 reporter, BCL3 qPCR, cytotoxicity, panel member STAT3 Activation (AID 2049)
# [19] = Luminescence Cell-Based Dose Response HTS to Identify Activators of Luciferase Translation or Activity in H4 […] Cells. [Related pubchem assays: 1829 (Project Summary), 1814 (Primary HTS)]; assay type: functional
# [20] = Luminescence Cell-Based Dose Response HTS to Identify Activators of 5'UTR Stem-Loop Driven Prion Protein mRNA Translation in H4-C Neuroglioblastoma Cells. [Related pubchem assays: 1829 (Project Summary), 1814 (Primary HTS)]; assay type: functional
# [21] = Luminescence Cell-Based Dose Response HTS to Identify Activators of Luciferase Translation or Activity in H4-C Neuroglioblastoma Cells. [Related pubchem assays: 1829 (Project Summary), 1814 (Primary HTS)]; assay type: functional
# [22] = Luminescence Cell-Based Dose Confirmation HTS to Identify Activators of 5'UTR Stem-Loop Driven Alpha-Synuclein mRNA Translation in H4 Neuroglioblastoma Cells. [Related pubchem assays: 1829 (Project Summary), 1814 (Primary HTS)]; assay type: functional
# [23] = system: H4; assay: Luminescence Cell-Based Dose Response HTS to Identify Activators of 5'UTR Stem-Loop Driven Prion Protein mRNA Translation in H4 Neuroglioblastoma Cells. [Related pubchem assays: 1829 (Project Summary), 1814 (Primary HTS)]; assay type: functional; conditions: Homo sapiens
# [24] = Luminescence Cell-Based Dose Retest to Confirm Activators of 5'UTR Stem-Loop Driven Alpha-Synuclein mRNA Translation in H4 Neuroglioblastoma Cells. [Related pubchem assays (depositor defined):AID1813, AID1829]; assay type: functional
# [25] = target: T7, Voltage-gated N-type calcium channel alpha-1B subunit/Amyloid beta A4 precursor protein-binding family A member 1 (Homo sapiens, UniProt Q00975+Q02410); assay type: protein assay
# [26] = target: Hepatocyte nuclear factor 4-alpha (Homo sapiens, UniProt P41235); assay type: functional, cell-based;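 also: biochemical luminescence-based dose-response counterscreen measuring inhibition of HNF4 dimerization, run alongside a screen for blockers of ABHD5–perilipin-5 interaction; split luciferase complementation of HNF4 fusion proteins in cell lysate measuring dimerization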
# [27] = target: T7, Voltage-gated N-type calcium channel alpha-1B subunit/Amyloid beta A4 precursor protein-binding family A member 1; assay type: protein assay; remark: listed apart in the source
# [28] = target: E3 ubiquitin-protein ligase Mdm2 (Homo sapiens, UniProt Q00987); assay: enhancers of MDM2-luciferase reporter signal, concentration-effect titration, project on inhibitors of MDM2 ubiquitin ligase, cellular assay, luminescent readout, 384-well plate format (AID 1394); assay type: functional;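 also: MDM2 E3 inhibitors raise luminescence so EC50 is for signal enhancement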
# [29] = target: T8, Microphthalmia-associated transcription factor (Homo sapiens, UniProt O75030); assay: TRPM1 promoter luciferase signal decrease, dose response, MITF inhibitor project, cell-based, SK-MEL-5, cherry-picked, set 3 (AID 493073); assay type: functional
# T8 sequence (O75030 whole entry): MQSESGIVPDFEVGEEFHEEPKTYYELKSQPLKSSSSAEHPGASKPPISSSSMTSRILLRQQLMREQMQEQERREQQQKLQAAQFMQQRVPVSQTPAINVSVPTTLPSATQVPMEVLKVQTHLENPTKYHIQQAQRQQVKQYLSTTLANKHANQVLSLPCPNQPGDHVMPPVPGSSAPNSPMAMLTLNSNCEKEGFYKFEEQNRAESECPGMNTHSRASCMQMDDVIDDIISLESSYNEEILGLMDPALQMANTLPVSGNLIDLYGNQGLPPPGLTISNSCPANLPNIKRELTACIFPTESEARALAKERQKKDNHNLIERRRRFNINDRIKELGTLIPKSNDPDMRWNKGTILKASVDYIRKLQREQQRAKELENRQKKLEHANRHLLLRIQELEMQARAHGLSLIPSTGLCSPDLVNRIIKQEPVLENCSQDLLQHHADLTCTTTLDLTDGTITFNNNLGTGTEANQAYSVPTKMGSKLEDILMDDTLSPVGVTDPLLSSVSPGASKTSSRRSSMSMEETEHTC
# [30] = target: T9, SUMO-activating enzyme (Homo sapiens, UniProt Q9UBT2); assay: SUMOylation inhibitor hit validation, confirmation, SUMOylation inhibitor project, biochemical, AlphaScreen (AID 2018); assay type: functional
# [31] = target: Induced myeloid leukemia cell differentiation protein Mcl-1 (Homo sapiens, UniProt Q07820); assay type: functional
# [32] = target: T10, Probable nicotinate-nucleotide adenylyltransferase (Staphylococcus aureus (strain N315), UniProt P65502); assay type: functional, Staphylococcus aureus subsp. aureus N315; conditions: read-out: IC50_Mean;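 as to IC50 Mean: confirmatory dose-response retesting of NadD inhibitor hits first found in an ultra-high-throughput screen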
# [33] = target: T10, Probable nicotinate-nucleotide adenylyltransferase; assay type: functional, Staphylococcus aureus subsp. aureus N315
# [34] = target: T9, SUMO-activating enzyme; assay: inhibitors of in vitro SUMOylation cascade, primary screen, biochemical, HTRF, uHTS (AID 2006); assay type: protein-complex assay
# [35] = system: Saccharomyces cerevisiae; assay: NALP1 inhibitor project selectivity study, Caspase-1/ASC signal blockade IC50 in S. cerevisiae (AID 488863); assay type: functional, organism-based
# [36] = target: NACHT, LRR and PYD domains-containing protein 1 (Homo sapiens, UniProt Q9C000); assay: NALP1 inhibitors in yeast, dose response, luminescent (AID 488860); assay type: functional
# [37] = inhibition of K1F phage lysis, E. coli UTI89, bacterial capsule biogenesis inhibitors, alamar blue (AID 488966); assay type: functional
# T4 sequence (P09923 whole entry): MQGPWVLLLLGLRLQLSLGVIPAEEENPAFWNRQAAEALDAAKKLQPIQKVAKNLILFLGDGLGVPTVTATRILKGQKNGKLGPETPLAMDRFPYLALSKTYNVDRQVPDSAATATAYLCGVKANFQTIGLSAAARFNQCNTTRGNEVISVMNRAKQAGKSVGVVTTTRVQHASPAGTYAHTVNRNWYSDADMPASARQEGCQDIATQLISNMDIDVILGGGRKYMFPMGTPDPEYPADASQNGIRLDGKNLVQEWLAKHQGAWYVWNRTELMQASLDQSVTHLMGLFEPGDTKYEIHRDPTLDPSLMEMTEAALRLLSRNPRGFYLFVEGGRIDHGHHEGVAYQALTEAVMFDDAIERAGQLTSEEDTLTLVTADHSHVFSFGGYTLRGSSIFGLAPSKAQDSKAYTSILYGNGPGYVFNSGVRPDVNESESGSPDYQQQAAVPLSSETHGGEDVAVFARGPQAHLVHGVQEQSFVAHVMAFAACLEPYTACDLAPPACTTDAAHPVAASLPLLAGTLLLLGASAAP
# T1 sequence (P41145 whole entry): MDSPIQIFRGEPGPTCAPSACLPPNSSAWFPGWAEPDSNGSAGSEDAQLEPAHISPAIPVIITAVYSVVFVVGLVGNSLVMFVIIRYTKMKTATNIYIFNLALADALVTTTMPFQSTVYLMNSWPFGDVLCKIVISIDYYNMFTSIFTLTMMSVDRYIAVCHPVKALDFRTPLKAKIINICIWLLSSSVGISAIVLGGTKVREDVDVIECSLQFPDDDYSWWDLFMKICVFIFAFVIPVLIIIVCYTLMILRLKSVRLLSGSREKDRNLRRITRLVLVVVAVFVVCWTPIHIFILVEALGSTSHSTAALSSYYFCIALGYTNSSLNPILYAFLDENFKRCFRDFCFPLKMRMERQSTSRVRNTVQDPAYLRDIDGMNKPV
# T2 sequence (P35372 whole entry): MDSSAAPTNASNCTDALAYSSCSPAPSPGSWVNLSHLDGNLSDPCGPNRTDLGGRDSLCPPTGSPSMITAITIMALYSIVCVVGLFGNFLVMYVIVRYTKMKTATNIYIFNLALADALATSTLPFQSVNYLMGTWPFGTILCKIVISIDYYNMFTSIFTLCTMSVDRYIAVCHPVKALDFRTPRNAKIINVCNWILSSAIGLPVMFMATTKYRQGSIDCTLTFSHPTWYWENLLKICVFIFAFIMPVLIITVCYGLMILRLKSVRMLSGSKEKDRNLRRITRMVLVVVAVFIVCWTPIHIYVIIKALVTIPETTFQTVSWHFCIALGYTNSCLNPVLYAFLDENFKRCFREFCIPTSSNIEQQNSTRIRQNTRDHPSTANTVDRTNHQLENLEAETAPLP
# T3 sequence (P41143 whole entry, the tested form may be a part): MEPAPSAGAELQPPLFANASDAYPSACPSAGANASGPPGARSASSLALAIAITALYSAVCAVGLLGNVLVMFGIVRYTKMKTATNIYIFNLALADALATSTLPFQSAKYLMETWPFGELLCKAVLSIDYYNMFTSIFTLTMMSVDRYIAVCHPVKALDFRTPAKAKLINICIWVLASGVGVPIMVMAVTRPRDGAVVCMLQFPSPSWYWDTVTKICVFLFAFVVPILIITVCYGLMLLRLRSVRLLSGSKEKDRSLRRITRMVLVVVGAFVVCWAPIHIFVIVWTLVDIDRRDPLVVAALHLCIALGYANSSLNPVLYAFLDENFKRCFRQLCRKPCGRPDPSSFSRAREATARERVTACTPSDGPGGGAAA
# T10 sequence (P65502 whole entry): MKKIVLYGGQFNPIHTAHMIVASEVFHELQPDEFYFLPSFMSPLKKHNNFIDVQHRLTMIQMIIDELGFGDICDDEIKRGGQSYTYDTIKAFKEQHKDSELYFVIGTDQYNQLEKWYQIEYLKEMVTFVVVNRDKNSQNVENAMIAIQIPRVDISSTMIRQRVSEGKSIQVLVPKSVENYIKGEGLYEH
# T9 sequence (Q9UBE0 whole entry): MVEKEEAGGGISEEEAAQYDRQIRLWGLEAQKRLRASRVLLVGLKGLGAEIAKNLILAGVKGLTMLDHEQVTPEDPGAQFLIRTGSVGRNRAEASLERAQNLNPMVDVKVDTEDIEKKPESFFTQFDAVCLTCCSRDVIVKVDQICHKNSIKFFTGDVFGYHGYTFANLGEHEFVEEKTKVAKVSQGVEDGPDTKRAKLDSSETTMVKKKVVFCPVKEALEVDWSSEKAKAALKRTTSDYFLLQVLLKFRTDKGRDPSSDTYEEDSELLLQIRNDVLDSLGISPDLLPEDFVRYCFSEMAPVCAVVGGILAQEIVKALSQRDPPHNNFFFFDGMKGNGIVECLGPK
# T9 sequence (Q9UBT2 whole entry): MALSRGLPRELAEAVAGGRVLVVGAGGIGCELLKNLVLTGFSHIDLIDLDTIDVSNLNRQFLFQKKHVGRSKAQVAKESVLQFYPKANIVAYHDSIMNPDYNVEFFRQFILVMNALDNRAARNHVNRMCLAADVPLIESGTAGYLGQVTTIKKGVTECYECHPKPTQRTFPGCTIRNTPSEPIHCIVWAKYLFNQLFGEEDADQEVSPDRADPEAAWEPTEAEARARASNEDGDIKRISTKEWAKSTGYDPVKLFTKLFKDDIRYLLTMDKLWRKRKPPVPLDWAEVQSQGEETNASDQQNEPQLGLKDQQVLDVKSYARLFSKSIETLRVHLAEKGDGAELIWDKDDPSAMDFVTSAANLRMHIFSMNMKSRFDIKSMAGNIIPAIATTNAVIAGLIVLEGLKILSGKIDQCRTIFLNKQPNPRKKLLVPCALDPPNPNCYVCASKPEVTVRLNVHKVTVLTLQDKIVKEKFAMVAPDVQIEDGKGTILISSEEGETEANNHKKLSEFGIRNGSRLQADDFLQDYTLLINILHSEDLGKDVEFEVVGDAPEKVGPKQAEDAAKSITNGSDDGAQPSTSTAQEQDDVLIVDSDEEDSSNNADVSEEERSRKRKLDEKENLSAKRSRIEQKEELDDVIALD
# T5 sequence (P24822 whole entry): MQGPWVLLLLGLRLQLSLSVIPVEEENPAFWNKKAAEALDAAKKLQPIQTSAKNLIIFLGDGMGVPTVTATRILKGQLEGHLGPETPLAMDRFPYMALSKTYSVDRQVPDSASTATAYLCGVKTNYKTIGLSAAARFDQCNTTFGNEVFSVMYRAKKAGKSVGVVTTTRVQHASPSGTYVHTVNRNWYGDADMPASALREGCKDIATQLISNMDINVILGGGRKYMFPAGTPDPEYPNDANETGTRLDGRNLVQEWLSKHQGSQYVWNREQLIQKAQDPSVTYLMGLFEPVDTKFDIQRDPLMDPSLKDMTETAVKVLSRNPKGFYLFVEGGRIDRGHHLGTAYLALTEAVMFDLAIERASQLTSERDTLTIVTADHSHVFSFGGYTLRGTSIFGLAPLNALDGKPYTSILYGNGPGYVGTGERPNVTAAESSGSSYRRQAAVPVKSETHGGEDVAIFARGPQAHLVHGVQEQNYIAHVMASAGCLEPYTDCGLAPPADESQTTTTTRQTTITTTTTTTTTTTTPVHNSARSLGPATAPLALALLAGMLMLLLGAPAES
# Sequence of Hexokinase (Q38C41 whole entry): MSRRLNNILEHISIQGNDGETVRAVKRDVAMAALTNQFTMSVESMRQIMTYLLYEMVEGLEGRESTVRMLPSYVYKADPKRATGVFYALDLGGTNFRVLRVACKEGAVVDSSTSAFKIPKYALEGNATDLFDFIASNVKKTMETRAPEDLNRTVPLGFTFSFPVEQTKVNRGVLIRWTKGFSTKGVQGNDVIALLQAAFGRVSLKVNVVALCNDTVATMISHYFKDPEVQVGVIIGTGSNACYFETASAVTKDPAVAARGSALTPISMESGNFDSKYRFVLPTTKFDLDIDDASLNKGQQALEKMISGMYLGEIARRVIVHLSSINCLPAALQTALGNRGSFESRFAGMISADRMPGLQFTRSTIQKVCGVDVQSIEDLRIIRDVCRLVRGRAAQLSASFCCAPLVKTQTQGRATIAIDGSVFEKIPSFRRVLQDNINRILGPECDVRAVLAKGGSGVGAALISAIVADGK
# Sequence of Hepatocyte nuclear factor 4-alpha (P41235 whole entry, the tested form may be a part): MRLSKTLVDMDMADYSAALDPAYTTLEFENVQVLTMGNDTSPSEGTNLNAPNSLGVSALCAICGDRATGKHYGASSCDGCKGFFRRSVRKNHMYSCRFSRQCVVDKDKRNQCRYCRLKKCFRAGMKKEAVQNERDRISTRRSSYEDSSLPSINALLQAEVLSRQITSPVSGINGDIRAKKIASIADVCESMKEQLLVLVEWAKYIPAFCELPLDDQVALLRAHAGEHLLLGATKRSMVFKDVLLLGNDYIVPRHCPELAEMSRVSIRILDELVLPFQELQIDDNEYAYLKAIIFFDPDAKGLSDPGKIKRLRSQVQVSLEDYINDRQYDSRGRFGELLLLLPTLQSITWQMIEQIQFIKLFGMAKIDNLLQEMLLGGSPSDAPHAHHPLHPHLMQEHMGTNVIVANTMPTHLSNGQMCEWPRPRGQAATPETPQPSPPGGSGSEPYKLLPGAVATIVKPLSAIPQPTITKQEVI
# Sequence of Bcl-2-like protein 10 (Q9HD36 whole entry): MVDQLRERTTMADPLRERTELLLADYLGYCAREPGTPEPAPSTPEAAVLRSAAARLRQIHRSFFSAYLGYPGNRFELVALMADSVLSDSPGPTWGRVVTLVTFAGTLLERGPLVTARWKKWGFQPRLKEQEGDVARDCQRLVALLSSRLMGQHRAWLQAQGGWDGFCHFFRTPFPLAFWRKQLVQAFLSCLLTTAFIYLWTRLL
# Sequence of Induced myeloid leukemia cell differentiation protein Mcl-1 (Q07820 whole entry): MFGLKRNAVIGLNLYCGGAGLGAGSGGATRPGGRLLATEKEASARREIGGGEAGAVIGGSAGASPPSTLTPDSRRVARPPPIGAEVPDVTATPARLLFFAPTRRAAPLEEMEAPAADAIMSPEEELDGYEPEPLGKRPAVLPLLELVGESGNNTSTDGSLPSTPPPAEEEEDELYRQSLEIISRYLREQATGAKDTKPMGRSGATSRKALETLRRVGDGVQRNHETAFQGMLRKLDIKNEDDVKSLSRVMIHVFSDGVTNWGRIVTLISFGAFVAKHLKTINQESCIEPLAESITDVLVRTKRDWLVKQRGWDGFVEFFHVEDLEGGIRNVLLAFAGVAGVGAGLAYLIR
structure (smiles),measurement,setting,value
Clc1ccccc1CSc1nnc(-c2ccccn2)n1Cc1cccs1,EC50,[1],4.06 µM (active)
same,EC50,[2],10.1 µM (inactive)
same,EC50,[3],> 32 µM (inactive)
same,EC50,[4],> 32 µM (inactive)
CCCCCC(=O)N1CCN(CC/N=C/C2=C(O)CC(c3ccco3)CC2=O)CC1 (stereo not given),IC50,[5],7.3 µM (active)
COc1ccccc1C1=NN(C2=NN=C(N)Cc3ncnn32)C(O)(C(F)(F)F)C1 (stereo not given),EC50,[6],7.06 µM (active)
same,IC50,[7],42.2 µM (active)
same,EC50,[8],11.7 µM (active)
same,EC50,[9],9.66 µM (active)
COc1ccc(C(=O)N2CCC(=O)c3ccc(Cl)cc32)cc1,IC50,[10],> 25 µM (inactive)
O=C(Nc1ccc(Cl)nc1)Nc1cccc(F)c1,EC50,[11],2.81 µM (active)
COc1ccc(OC)c(NC(=O)CCN2CCC(C)CC2)c1,IC50,[12],> 100 µM (inactive)
Cc1cccc(NS(=O)(=O)c2cccc(C(=O)NNC(=O)c3ccccc3O)c2)c1,EC50,[6],16.1 µM (active)
same,EC50,[8],0.705 µM (active)
same,EC50,[9],23.5 µM (active)
same,EC50,[13],> 100 µM (inactive)
CC(C)N(CCNC(=O)c1ccc(CNS(=O)(=O)c2ccc(Br)cc2)cc1)Cc1ccccc1,IC50,[14],> 32 µM (inactive)
same,IC50,[15],3.22 µM (active)
same,IC50,[16],1.32 µM (active)
same,IC50,[17],0.421 µM (active)
COc1ccccc1NC(=O)c1cc(-c2ccccc2)on1,EC50,[18],9.62 µM (active)
O=C1CCCCCN1Cc1nnc(SCc2nc3ccccc3s2)n1-c1ccccn1,EC50,[19],25 µM (active)
same,EC50,[20],1.89 µM (active)
same,EC50,[21],0.207 µM (active)
same,EC50,[22],1.08 µM (active)
same,EC50,[23],80.9 µM (inconclusive)
same,EC50,[24],> 195 µM (inactive)
COCCNC(=O)/C(C#N)=C/c1cccc(/C=C(\C#N)C(=O)NCCOC)c1,IC50,[25],> 50 µM (inactive)
same,IC50,[26],1.51 µM (active)
same,IC50,[27],> 56.8 µM (not active)
same,EC50,[28],0.94 µM (active)
same,AC50,[29],12.7 µM (active)
N#Cc1c(NC(=O)CSc2ncnc3sccc23)oc(-c2ccco2)c1-c1ccco1,IC50,[30],2.82 µM (active)
same,IC50,[31],4.69 µM (active)
same,IC50,[32],27.8 µM (active)
same,IC50,[33],8.79 µM (active)
same,IC50,[34],22.9 µM (active)
Cc1cc(Cl)c(OCCCCN2CCOCC2)c(Br)c1,IC50,[35],> 100 µM (inactive)
same,IC50,[36],> 100 µM (inactive)
COc1ccc(NC(=O)/C=C2\SC(=O)NC2=O)cc1,IC50,[37],> 150 µM (active)
